Results on one compound are retold here after publication PMC10916400, “Effect of the aggregated protein dye YAT2150 on Leishmania parasite viability” (Antimicrobial Agents and Chemotherapy, 2024).

As usually defined, the IC50 is the concentration that gives 50% inhibition. For orientation: inhibition means the change of the read-out against control, counted positive when it falls.

One series concerns P. falciparum. Also noted: method as in PMID 36271358. The settings on record: read-out: IC50 in in vitro P. falciparum cultures; cited from earlier work.
Series [1] deals with L. infantum promastigotes. In words: microbe, parasite or virus in culture. The class given is cell-based, Leishmania infantum. The following applies: L. infantum promastigotes; for IC50: in vitro. As to the method:
L. infantum (MHOM/ES/2016/CATB101) promastigotes were maintained at 26°C in complete Schneider’s medium (Schneider’s insect medium supplemented with 10% FBS, 25 µg/mL gentamycin, 1% penicillin-streptomycin, and 1% sterile human urine, pH 6.7). For growth inhibition assays, promastigotes were used in the logarithmic growth phase, whereas for the infection of macrophages and generation of amastigotes they were used in the stationary phase. Axenic amastigotes were obtained following established protocols ([40], [57][–][59]); briefly, 1 × 10^7 promastigotes/mL in stationary phase were cultured in Schneider’s insect medium supplemented with 20% FBS, 25 µg/mL gentamycin, and 3.9 g/L of 2-(N-morpholino)ethanesulfonic acid, at pH 5.4 and 37°C. After 48 h, the typical rounded morphology of axenic amastigotes and their flagellum shortening could be observed. This culture was used within a week after its preparation.
In 96-well microtiter plates (Nunclon Delta surface; Thermo Fisher Scientific Inc.), serial dilutions (1:2) of the drugs or peptides were performed, either free or loaded in nanoformulations, in 100 µL of complete Schneider’s medium, to which one volume of 2 × 10^6 logarithmic growth-phase L. infantum promastigotes/mL in the same buffer was added. After 48 h, resazurin sodium salt was incorporated at a final concentration of 0.00125% and the plates were incubated at 26°C for another 24 h, when fluorescence from resorufin was measured as described above.

In another series the target is T1, CYP1A2 (Homo sapiens, UniProt P05177).
T1 construct: host or cells: baculovirus-infected insect cells (microsomes)
T1 sequence (P05177 1-516): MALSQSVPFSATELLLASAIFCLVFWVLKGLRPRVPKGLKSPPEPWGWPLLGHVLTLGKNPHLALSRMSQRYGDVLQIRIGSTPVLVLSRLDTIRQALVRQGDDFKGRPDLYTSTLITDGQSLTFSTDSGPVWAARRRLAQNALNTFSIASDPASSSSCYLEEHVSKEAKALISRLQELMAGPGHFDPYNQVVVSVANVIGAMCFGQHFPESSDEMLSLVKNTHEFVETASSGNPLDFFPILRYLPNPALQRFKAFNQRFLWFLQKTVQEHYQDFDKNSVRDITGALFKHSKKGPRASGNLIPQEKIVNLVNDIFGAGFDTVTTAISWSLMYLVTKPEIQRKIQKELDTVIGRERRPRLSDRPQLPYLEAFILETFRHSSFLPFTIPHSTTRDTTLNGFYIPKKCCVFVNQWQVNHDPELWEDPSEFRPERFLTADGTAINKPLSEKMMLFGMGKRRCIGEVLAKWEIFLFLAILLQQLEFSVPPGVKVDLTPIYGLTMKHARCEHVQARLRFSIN
In words: Cytochrome inhibition activity assay. The class given is biochemical. The settings on record: probe 3-cyano-7-ethoxycoumarin, human recombinant enzyme, 37°C. On the procedure: (§1) To screen the inhibition potential of the compounds using recombinant human cytochrome P450 enzymes (CYP1A2, CYP2C9, CYP2C19, and CYP2D6) and probe substrates with fluorescent detection, incubations were conducted in a 200-µL volume in 96-well microtiter plates (Costar #3915; Corning Inc.). Addition of cofactor-buffer mixture (0.2 M KH2PO4 buffer, 1.3 mM NADP, 3.3 mM MgCl2, 3.3 mM glucose-6-phosphate, and 0.4 U/mL glucose-6-phosphate dehydrogenase), previously diluted control Supersomes (insect cell control for Supersomes enzymes, baculovirus-insect cell-expressed; Corning Inc.), standard inhibitors (furafylline, tranylcypromine, sulfaphenazole, and quinidine), and test compounds was carried out by a Zephyr liquid handling station (Caliper Life Sciences, Hopkinton, MA, US). The plate was then pre-incubated at 37°C for 5 min, and the reaction was initiated by the addition of pre-warmed enzyme/substrate mix, which contained buffer (KH2PO4), cDNA-expressed P450 in insect cell microsomes, substrate (3-cyano-7-ethoxycoumarin for CYP1A2 and CYP2C19, 7-methoxy-4-(trifluoromethyl)coumarin for CYP2C9, and 3-[2-(N,N-diethyl-N-methylammonium)ethyl]-7-methoxy-4-methylcoumarin for CYP2D6) to obtain the final assay concentrations in a reaction volume of 200 µL. Reactions were terminated after a specific time for each cytochrome by the addition of stop solution (ACN:0.5 M tris-HCl, 80:20 vol/vol). Fluorescence in each well was measured using a fluorescence plate reader (EnVision 2104 multilabel plate reader; PerkinElmer, Waltham, MA, US), and percentage of inhibition was calculated.

The target of a further series is T2, CYP2C9 (Homo sapiens, UniProt P11712).
T2 construct: host or cells: baculovirus-infected insect cells (microsomes)
T2 sequence (P11712 whole entry): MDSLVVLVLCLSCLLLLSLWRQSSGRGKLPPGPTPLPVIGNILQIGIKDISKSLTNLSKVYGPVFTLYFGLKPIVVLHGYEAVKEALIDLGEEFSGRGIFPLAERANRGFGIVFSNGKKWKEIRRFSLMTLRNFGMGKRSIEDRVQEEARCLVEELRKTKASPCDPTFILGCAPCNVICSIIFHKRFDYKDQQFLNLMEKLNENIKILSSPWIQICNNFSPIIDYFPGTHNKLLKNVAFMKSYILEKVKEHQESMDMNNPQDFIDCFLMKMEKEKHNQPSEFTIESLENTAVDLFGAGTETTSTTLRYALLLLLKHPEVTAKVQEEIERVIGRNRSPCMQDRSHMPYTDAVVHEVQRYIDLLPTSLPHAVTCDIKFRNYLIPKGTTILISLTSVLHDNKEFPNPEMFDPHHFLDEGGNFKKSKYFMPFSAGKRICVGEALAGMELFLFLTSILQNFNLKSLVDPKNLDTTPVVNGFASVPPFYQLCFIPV
Put plainly: Cytochrome inhibition activity assay. It counts as biochemical. The following applies: probe 7-methoxy-4-(trifluoromethyl)coumarin, human recombinant enzyme, 37°C. As to the method: as §1

For another series, the target named is T3, CYP2D6 (Homo sapiens, UniProt P10635).
T3 construct: host or cells: baculovirus-infected insect cells (microsomes)
T3 sequence (P10635 whole entry): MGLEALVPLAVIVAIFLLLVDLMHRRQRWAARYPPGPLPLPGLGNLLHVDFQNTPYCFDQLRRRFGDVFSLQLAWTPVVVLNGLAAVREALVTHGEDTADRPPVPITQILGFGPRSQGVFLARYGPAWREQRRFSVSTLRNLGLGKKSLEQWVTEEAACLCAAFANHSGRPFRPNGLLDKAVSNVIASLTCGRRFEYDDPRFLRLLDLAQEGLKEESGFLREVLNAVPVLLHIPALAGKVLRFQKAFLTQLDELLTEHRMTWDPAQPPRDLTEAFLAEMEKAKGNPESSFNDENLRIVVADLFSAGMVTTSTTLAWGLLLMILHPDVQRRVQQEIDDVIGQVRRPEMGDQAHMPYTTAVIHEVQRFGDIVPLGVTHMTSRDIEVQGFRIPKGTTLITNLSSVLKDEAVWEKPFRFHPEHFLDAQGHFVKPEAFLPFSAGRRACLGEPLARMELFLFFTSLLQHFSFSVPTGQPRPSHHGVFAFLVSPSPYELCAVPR
Put plainly: Cytochrome inhibition activity assay. The class given is biochemical. The settings on record: human recombinant enzyme, 37°C. On the procedure:
as §1

Another series deals with T4, CYP2C19 (Homo sapiens, UniProt P33261).
T4 construct: host or cells: baculovirus-infected insect cells (microsomes)
T4 sequence (P33261 whole entry): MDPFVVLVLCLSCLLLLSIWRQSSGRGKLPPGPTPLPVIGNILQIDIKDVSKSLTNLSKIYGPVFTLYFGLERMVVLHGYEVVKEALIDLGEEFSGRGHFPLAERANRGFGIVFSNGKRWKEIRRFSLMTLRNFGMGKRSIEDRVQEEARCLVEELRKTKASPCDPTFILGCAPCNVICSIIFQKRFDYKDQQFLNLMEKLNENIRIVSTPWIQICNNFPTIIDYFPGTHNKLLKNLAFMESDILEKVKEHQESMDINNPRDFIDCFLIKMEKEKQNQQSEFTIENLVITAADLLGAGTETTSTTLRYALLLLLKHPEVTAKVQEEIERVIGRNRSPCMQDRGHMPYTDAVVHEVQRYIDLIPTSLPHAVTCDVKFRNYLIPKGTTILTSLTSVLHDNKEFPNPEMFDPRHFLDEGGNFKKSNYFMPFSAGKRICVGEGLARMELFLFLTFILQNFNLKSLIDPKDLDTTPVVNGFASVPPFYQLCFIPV
Put plainly: Cytochrome inhibition activity assay. The class given is biochemical. The following applies: human recombinant enzyme, 37°C. As to the method: as §1

`CCN(CC)c1ccc(/C=C/c2cc[n+](CCCCCCCCCC[n+]3ccc(/C=C/c4ccc(N(CC)CC)cc4)c(C)c3)cc2C)cc1` [YAT2150]: the IC50 was roughly 90 nM with P. falciparum; roughly 500 nM in series [1]; roughly 520 nM in series [1] (Leishmania infantum); 1700 nM on CYP2D6; 1100 nM at CYP2C19. For the same compound, the “in vitro IC10” value in series [1] is 150 nM. Also, the “in vitro IC40” value in series [1] is 300 nM. In addition, the inhibition at 10 µM at CYP1A2 and on CYP2C9 was roughly 50% each time.
